Laboratory results published in patent US20170088851A1, “METHODS FOR IMPROVING ABIOTIC STRESS RESPONSE” (The Regents of the University of California, priority 2011, published 2017).
Peptide text beside a SMILES is read from it. * marks the point of attachment. Cbz = O=C(OCc1ccccc1)*

Assays:
[1] = tested on: N-end rule pathway of targeted proteolysis (NERP); experiment: In vitro protein stability, heterologous rabbit reticulocyte lysate assay (TNT T7 Coupled Reticulocyte Lysate system, anti-HA immunoblot); assay type: biochemical; settings: for effect on in vitro stability of Arabidopsis Group VII ERFs: HA-tagged ERFs in reticulocyte lysate, 100 μM MG132 or 1 mM dipeptides; for MC-GUS degradation in the presence of the inhibitor: MC-GUS produced in rabbit reticulocyte lysate
Experimental: Protein stability analyses. Full length cDNAs were PCR amplified from either Arabidopsis thaliana or Oryza sativa L. (cv. M202 (Sub1)). N-terminal mutations were introduced using a specific forward primer. For in vitro assays, cDNAs were cloned into a modified version of the pTNT vector (Promega) to produce C-terminal HA fusions. Stability assays were performed using the TNT T7 Coupled Reticulocyte Lysate system (Promega), essentially as described previously^23. For in vivo analysis of EIRE-HA proteins, cDNAs were cloned into pE2c, mobilized into pB2GW7 and transformed into Arabidopsis using the floral dip method. To Assess relative protein stability, equal amounts of total protein extracted from 7-day old T3 homozygous seedlings were analyzed by Western blot, and cDNA synthesized from total RNA was used as a template for semi-quantitative PCR.
In vitro analysis of protein stability: To generate Arabidopsis and rice protein-HA fusions driven by the T7 promoter, cDNAs were PCR amplified from Arabidopsis total cDNA or submerged rice cDNA (M202 (Sub1); as described^3 and ligated into a modified version of the pTNT […] expression vector (pTNT3xHA). N-terminal mutations were incorporated by changing the forward primer sequences accordingly (Table 1). Proteins were expressed in vitro using the TNT T7 Coupled Reticulocyte Lysate system (Promega) according to manufacturer's guidelines, using 500 ng plasmid template. Where appropriate, 100 μM MG132 or 1 mM dipeptides (arg-β-ala or ala-ala; Sigma-Aldrich) and […] Bestatin (Sigma-Aldrich) were added. Reactions were incubated at 30° C., and samples were taken at appropriate time points before mixing with protein loading dye to terminate protein synthesis. Equal amounts of each reaction were subjected to anti-HA immunoblot analysis.
Immunoblotting: Proteins resolved by SDS-PAGE were transferred to PVDF using a MiniTrans-Blot electrophoretic transfer cell (Bio-Rad). Membranes were probed with primary antibodies at the following titres: anti-HA (Sigma-Aldrich), 1:1000; anti-α-tubulin (Sigma-Aldrich), 1:5,000, or anti-ribosomal protein 5636, (1:5,000). HRP conjugated anti-mouse secondary antibody (Santa Cruz) was used at a titre of 1:10,000. Immunoblots were developed to film using ECL Western blotting substrate (Pierce). Alignment of MC-ERF proteins from Arabidopsis and Rice: Rice and Arabidopsis ERF proteins starting with the sequence MC- were aligned and phylogenetic relationships observed using CLUSTALW37.
We investigated the possibility that all Arabidopsis Group VII ERFs as well as rice SUB1A-1 were NERP substrates.

[2] = tested on: maplA mutant seeds; experiment: Seed sensitivity to ABA on germination in the presence of fumagillin; assay type: in vivo, Arabidopsis
Description: FIG. 13B Proteins initiating MC control seed sensitivity to ABA.

[3] = tested on: MC-GUS; experiment: Western analysis of MC-GUS protein levels in seedlings treated with cPTIO; assay type: in vivo, Arabidopsis; settings: WT Col-0 seedlings treated with cPTIO
Description: FIG. 14C Stability of MC-GUS in Col-0 is related to NO.

[4] = tested on: HRE2; experiment: Western blot of HRE2 protein levels in vivo after cPTIO treatment; parameters: species or system Arabidopsis; settings: 35S CaMV promoter
Description: FIG. 14D Stability of the physiological substrate HRE2 is controlled by NO. Western blot showing levels of HRE2 protein in-vivo (constitutive gene transcription produced from the 35S CaMV promoter).

Compound: Arg-Ala
- effect on in vitro stability of Arabidopsis Group VII ERFs [1]: stability was enhanced
- MC-GUS degradation in the presence of the inhibitor [1]: not degraded

Compound: CO[C@@H]1[C@H](OC(=O)/C=C/C=C/C=C/C=C/C(=O)O)CC[C@]2(CO2)[C@H]1[C@@]1(C)O[C@@H]1CC=C(C)C [fumagillin]
- seed sensitivity to ABA when germinated in the presence of fumagillin [2]: hypersensitive to ABA

Compound: CC1(C)N([O])C(c2ccc(C(=O)O)cc2)=[N+]([O-])C1(C)C [cPTIO]
- effect on MC-GUS protein level [3]: MC-GUS protein accumulates
- effect on HRE2 protein level [4]: stabilises the protein

Compound: CC(C)C[C@@H](C=O)NC(=O)[C@H](CC(C)C)NC(=O)[C@H](CC(C)C)NC(=O)OCc1ccccc1 [MG132] (Cbz-Leu-Leu-Leu-aldehyde)
- effect on in vitro stability of Arabidopsis Group VII ERFs [1]: stability was enhanced
- MC-GUS degradation in the presence of the inhibitor [1]: not degraded
